Results as given in US12122780B2, “Pyrimidinyl group-containing tricyclic compound serving as c-Met inhibitor” (JIANGSU AOSAIKANG PHARMACEUTICAL CO., LTD., priority 2019, dated 2024).
Counter-ions that a name gives are not always drawn.

Columns and labels:
EBC-1 cells = assay: EBC-1 cell proliferation experiment (CellTiter-Glo); type: cell-based, human; conditions: Homo sapiens, EBC-1, 72 h, 3 days
Procedure: MEM medium, fetal bovine serum, penicillin/streptomycin antibiotics were purchased from Wisent. EBC-1 cell line was purchased from Nanjing COBIO Bioscience Co., LTD. Envision multi-label analyzer (PerkinElmer).
EBC-1 cells were seeded in a white 96-well plate, […] cell suspension per well, which contained 3000 EBC-1 cells. The cell plate was placed in a carbon dioxide incubator for overnight culture.
The compound to be tested was diluted 5-fold to the eighth concentration with a discharge gun, i.e., from 2 mM to […], and double duplicate wells experiment was set. 78 μL of the medium was added to the middle plate, then 2 μL per well of gradient diluted compound was transferred to the corresponding position on the middle plate, then mixed well and 20 μL per well was transferred to the cell plate. The cell plate was cultured in a carbon dioxide incubator for 3 days. Another cell plate was prepared and the signal values were read on the day of dosing as […] to be used in the data analysis. 25 μL of Promega CellTiter-Glo was added to each well of this cell plate, and incubated at room temperature for 10 minutes to stabilize the luminescence signal. Readings were taken using a PerkinElmer Envision multi-label analyzer.
25 μL of Promega CellTiter-Glo reagent was added to each well of this cell plate, and incubated at room temperature for 10 minutes to stabilize the luminescence signal. Readings were taken using a PerkinElmer Envision multi-label analyzer.
Using the equation (Sample-Min)/(Max-Min)*100% to convert the original data to the inhibition rate, the IC50 value can be obtained by curve fitting with four parameters (obtained by “log(inhibitor) vs. response in GraphPad Prism—Variable slope mode).

c-Met enzyme = c-Met enzyme (Homo sapiens (Human), UniProt P08581); assay: c-Met enzyme activity inhibition (Promega c-Met Kinase Enzyme System, ADP-Glo); type: biochemical; conditions: 10 μM ATP, 60 min, 30° C.
Procedure: To detect the inhibitory effect of the compounds on c-Met enzyme activity.
The c-Met Kinase Enzyme System was purchased from Promega. Envision multi-label analyzer (PerkinElmer).
The kinase buffer in the kit was used to dilute the enzyme, substrate, ATP and inhibitor.
The compound to be tested was diluted 5-fold to the eighth concentration with a discharge gun, i.e., from 50 μM to […], with a final DMSO concentration of 5%, and double duplicate wells experiment was set. 1 μL of each concentration gradient of the inhibitor, 2 μL of c-Met enzyme (4 ng), 2 μL of a mixture of the substrate and ATP (10 μM ATP, 0.2 μg/μL poly E4Y1) were added to the microplate, and the final concentration gradient of the compound of 10 μM was diluted to 0.13 nM. The reaction system was placed at 30° C. and the reaction was carried out for 60 minutes. When the reaction was completed, 5 μL of ADP-Glo reagent was added to each well and the reaction was carried out at 30° C. for another 40 minutes, when the reaction was completed, 10 μL of kinase detection reagent was added to each well, then the reaction was carried out at 30° C. for still another 30 minutes, chemiluminescence was read by the PerkinElmer Envision multi-label analyzer with an integration time of 0.5 seconds.
Using the equation (Sample-Min)/(Max-Min)*100% to convert the original data to the inhibition rate, the IC50 value can be obtained by curve fitting with four parameters (obtained by log(inhibitor) vs. response in GraphPad Prism—Variable slope mode).

[1] = test system: human lung cancer EBC-1 xenograft tumor; assay: In vivo drug efficacy, human lung cancer EBC-1 xenograft tumor in nude mice; design: species or system BALB/c nude mice; conditions: for Tumor volume: n = 6
Procedure: BALB/c nude mice, female, 6-8 weeks old, weighing about 18-20 grams, animals were raised in SPF-class animal rooms in IVC (independent air supply system, constant temperature and humidity) cages (3 per cage). All cages, bedding and water were disinfected before use. All animals had free access to standard certified commercial laboratory diets. A total of 36 mice purchased from Shanghai Lingchang Biotechnology Co., Ltd. were used for research. Each animal was inoculated with 0.1 mL (5×10^6 cells) of EBC-1 cells on the right back, when the average tumor volume reached 243 mm^3, the animals were randomly grouped and the administration was started. The test compound was orally administered daily, the dose of hydrochloride of compound 24 was 10 mg/kg, the two doses of hydrochloride of compound 25 were 10 mg/kg and 20 mg/kg, respectively, and the dose of hydrochloride of compound 29 was 10 mg/kg. The tumor diameter was measured with vernier calipers twice a week. The calculation formula of tumor volume was: V=0.5a×b^2, a and b represented the long diameter and short diameter of the tumor, respectively. The anti-tumor efficacy of the compound was evaluated by TGI (%) or the relative tumor proliferation rate T/C (%). Relative tumor proliferation rate T/C (%)=TRTV/CRTV×100% (TRTV: average RTV in the treatment group; CRTV: average RTV in the negative control group). The relative tumor volume (RTV) was calculated according to the results of tumor measurement, the calculation formula was RTV=Vt/V0, wherein V0 was the tumor volume measured at the time of the grouping administration (i.e. D0), Vt was the tumor volume at a certain measurement, and TRTV and CRTV were taken on the same day. TGI (%) reflected the tumor growth inhibition rate. TGI (%)=[(1−(average tumor volume of a certain treatment group after administration-average tumor volume of the treatment group at the beginning of administration))/(average tumor volume of the solvent control group after the administration-average tumor volume of the solvent control group at the beginning of the administration)]×100%. Statistical analysis was performed based on RTV data at the end of the experiment, and SPSS software was used for analysis.

Sequence of c-Met enzyme (P08581 956-1390): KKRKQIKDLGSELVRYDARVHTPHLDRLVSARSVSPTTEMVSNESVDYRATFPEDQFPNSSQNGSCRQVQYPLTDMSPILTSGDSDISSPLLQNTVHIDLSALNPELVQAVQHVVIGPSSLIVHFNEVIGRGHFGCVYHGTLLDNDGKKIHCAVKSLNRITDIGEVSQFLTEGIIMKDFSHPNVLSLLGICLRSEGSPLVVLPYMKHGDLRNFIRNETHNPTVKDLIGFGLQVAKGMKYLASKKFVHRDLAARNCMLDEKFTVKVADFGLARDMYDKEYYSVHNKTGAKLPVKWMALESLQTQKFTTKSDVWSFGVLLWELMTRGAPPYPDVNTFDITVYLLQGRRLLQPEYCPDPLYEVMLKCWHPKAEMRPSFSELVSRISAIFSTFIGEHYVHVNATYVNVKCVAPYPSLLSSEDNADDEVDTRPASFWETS

CN1CCC(COc2cnc(-c3cccc(Cn4c(=O)ccc5c4nc4ccc(C#N)cn45)c3)nc2)CC1 [Hydrochloride of compound 23]
IC50 (EBC-1 cells): 16.8 nM | IC50 (c-Met enzyme): 6.46 nM

CN1CCC(COc2cnc(-c3cccc(Cn4c5c(ccc4=O)-c4cc(C#N)ccc4C5=O)c3)nc2)CC1 [Formate of compound 2]
IC50 (EBC-1 cells): 5.79 nM | IC50 (c-Met enzyme): 10 nM

CC(C)N1CC(COc2cnc(-c3cccc(Cn4c(=O)ccn5c6cc(C#N)ccc6nc45)c3)nc2)C1 [Hydrochloride of compound 46]
IC50 (EBC-1 cells): 12.2 nM

CC(C)N1CCC(COc2cnc(-c3cccc(Cn4c(=O)ccn5c6cc(C#N)cnc6nc45)c3)nc2)CC1 [Hydrochloride of compound 33]
IC50 (EBC-1 cells): 899 nM

CCCN1CCC(COc2cnc(-c3cccc(Cn4c(=O)ccn5c6cc(C#N)ccc6nc45)c3)nc2)CC1 [Hydrochloride of compound 43]
IC50 (EBC-1 cells): 7.32 nM

CC(C)N1CCC(COc2cnc(-c3cccc(Cn4c5c(ccc4=O)-c4cc(C#N)ccc4C5=O)c3)nc2)CC1 [Hydrochloride of compound 19]
IC50 (EBC-1 cells): 14.1 nM | IC50 (c-Met enzyme): 13.4 nM

CCN1CCC(COc2cnc(-c3ccc(F)c(Cn4c(=O)ccn5c6cc(C#N)ccc6nc45)c3)nc2)CC1 [Hydrochloride of compound 29]
IC50 (EBC-1 cells): 10.3 nM | IC50 (c-Met enzyme): 6.31 nM | Tumor volume ([1]; 10 mg/kg oral daily (stopped after 15 days), day 18, mean ± standard error): 218 ± 50 mm^3 | Tumor volume ([1]; 10 mg/kg oral daily (stopped after 15 days), day 21, mean ± standard error): 243 ± 56 mm^3 | Tumor volume ([1]; 10 mg/kg oral daily (stopped after 15 days), day 25, mean ± standard error): 337 ± 83 mm^3 | Tumor volume ([1]; 10 mg/kg oral daily (stopped after 15 days), day 25, mean ± standard error, listed as hydrochloride of compound 29): 337 mm^3 | Tumor volume ([1]; 10 mg/kg oral daily (stopped after 15 days), day 27, mean ± standard error): 412 ± 100 mm^3 | TGI (tumor growth inhibition rate) ([1]; 10 mg/kg oral daily, 25th day): 94.8% | TRTV/CRTV (relative tumor proliferation rate T/C) ([1]; 10 mg/kg oral daily, 25th day): 16.2% | Tumor volume ([1]; 10 mg/kg oral daily, day 0, mean ± standard error): 243 ± 17 mm^3 | Tumor volume ([1]; 10 mg/kg oral daily, day 4, mean ± standard error): 299 ± 13 mm^3 | Tumor volume ([1]; 10 mg/kg oral daily, day 7, mean ± standard error): 318 ± 21 mm^3 | Tumor volume ([1]; 10 mg/kg oral daily, day 11, mean ± standard error): 294 ± 27 mm^3 | Tumor volume ([1]; 10 mg/kg oral daily, day 14, mean ± standard error): 205 ± 37 mm^3

CN1CCN(C(=O)Oc2cnc(-c3cccc(Cn4c5c(ccc4=O)-c4cc(C#N)ccc4C5=O)c3)nc2)CC1 [Hydrochloride of compound 20]
IC50 (c-Met enzyme): 26 nM

CN1CCC(COc2cnc(-c3cccc(Cn4c(=O)c(F)cc5c6cc(C#N)ccc6sc54)c3)nc2)CC1 [Hydrochloride of compound 8]
IC50 (EBC-1 cells): 36 nM | IC50 (c-Met enzyme): 21.5 nM

CN1CCC(COc2cnc(-c3cccc(Cn4c(=O)ccc5c6cc(C#N)ccc6sc54)c3)nc2)CC1 [Hydrochloride of compound 6]
IC50 (EBC-1 cells): 62.8 nM | IC50 (c-Met enzyme): 24.9 nM

CN1CCC(COc2cnc(-c3cccc(Cn4c(=O)ccc5c4nn4ccc(C#N)cc54)c3)nc2)CC1 [Hydrochloride of compound 27]
IC50 (EBC-1 cells): 38 nM | IC50 (c-Met enzyme): 17.7 nM

CCN1CCC(COc2cnc(-c3cccc(Cn4c(=O)c(F)cn5c6cc(C#N)ccc6nc45)c3)nc2)CC1 [Hydrochloride of compound 13]
IC50 (EBC-1 cells): 133 nM | IC50 (c-Met enzyme): 42 nM

CN1CCC(COc2cnc(-c3cccc(Cn4c(=O)ccn5c6cc(C#N)ccc6cc45)c3)nc2)CC1 [Hydrochloride of compound 10]
IC50 (EBC-1 cells): 31.6 nM | IC50 (c-Met enzyme): 15.7 nM

CN1CCC(COc2cnc(-c3cccc(Cn4c5c(ccc4=O)-c4cc(C#N)ccc4OC5)c3)nc2)CC1 [Formate of compound 5]
IC50 (EBC-1 cells): 585 nM | IC50 (c-Met enzyme): 131 nM
